B1: IFNg: IFNg, known not to induce E-selectin in vitro; control cytokine (protein, UniProt P01579 24-161, looked up)
Interferon gamma: QDPYVKEAENLKKYFNAGHSDVADNGTLFLGILKNWKEESDRKIMQSQIVSFYFKLFKNFKDDQSIQKSVETIKEDMNVKFFNSNKKKRDDFEKLTNYSVTDLNVQRKAIHELIQVMAELSPAAKTGKRKRSQMLFRG

Tests used:
[1] = system: SEAP expression; test: Effect of inhibitory compounds on TNF-induced SEAP expression; type: in vivo, mouse; details: for inhibition of marker enzyme (SEAP) expression: SEAP-1 animals (Example 2), 1 mg/kg i.v.; for modification of SEAP expression: SEAP-2 animals
Procedure: Test 5: Effect of Inhibitory Compounds on SEAP Expression.
Clasto-lactacystine-β-lactone, a commercially available proteasome inhibitor is dissolved in DMSO (10 μl/100 μg) and further diluted with 90 μl Peg300. This mixture is further diluted 1:10 in saline and injected i.v. to animals of Example 2 at a dose of 1 mg/kg. Ten to 15 min later TNF is administered i.p. to compound-treated or untreated animals of Example 2. Blood samples are taken from the animals at baseline, 6 hours and 24 hours and SEAP levels analyzed.

[2] = system: SEAP expression under the control of the E-selectin regulatory sequence; test: LPS and cytokine induction of SEAP expression in heterozygous mice; type: in vivo, mouse; details: either line (SEAP-1, SEAP-2)
Procedure: Test 1: LPS and Cytokine Induction of SEAP Expression in Heterozygous Mice.
Heterozygous mice of Example 1 and Example 2 are injected with LPS (Sigma, Serotype 0:111B4 Cat. L4130) at a dose of 25 μg per mouse. Murine recombinant TNFα (R&D Systems, Cat No. 410-MT) is diluted in sterile saline and administered at a dose of 500 ng/mouse. Administration is intravenously, e.g., into the tail vein, subcutaneously or intraperitoneally.
Blood for analysis is taken from a superficial vein of the mouse into heparinized glass hematocrit capillaries. The blood is centrifuged in a table-top Eppendorff centrifuge at maximal speed for 5 min to prepare plasma.
A standard curve is created with human placental alkaline phosphatase (PAP) (Sigma Cat. P-3895). A stock solution of 2 mg/ml dissolved in buffer (Tris/HCl 50 mM pH 7.4; NaCl 150 mM; BSA 1%) is stored at −80° C. in aliquots. The standard curve is diluted in mouse plasma containing Heparin. The range of the standard curve is between 0.5 and 50000 ng/mL PAP.
For the enzyme assay the Tropix Kit (Tropix, Cat. No BP300) is used.
The results are plotted in FIGS. 3 and 4. […] The maximal levels of plasma SEAP are reached at 6 hours post-stimulation in animals of Example 2, the maximum reached in animals of Example 1 is not seen until 24 hours post stimulation. SEAP-2 mice express about 1000-fold more marker enzyme than SEAourP-1 animals. […]

Molecule	inhibition of marker enzyme (SEAP) expression ([1]; 6 hours after TNF)	inhibition of marker enzyme (SEAP) expression ([1]; 24 hours after TNF)	modification of SEAP expression ([1]; 6 hours after TNF)	modification of SEAP expression ([1]; 24 hours after TNF)	effect on SEAP induction [2]
CC(C)[C@H](O)[C@@]12NC(=O)[C@H](C)[C@@H]1OC2=O [clasto-lactacystine-β-lactone, Clasto-lactacystine-β-lactone]	significant inhibition	no effect	does not modify	does not modify	–
B1	–	–	–	–	no effect

From patent US6632978B1, “Transgenic animals for studying regulation of genes” (Novartis AG, priority 1999, dated 2003)
